Experimental data published in US5763442A, “Anti-parasitic activity” (Universiteit Van Pretoria, priority 1995, dated 1998).

How the values were obtained:
P. falciparum (RB-1) = assay: Direct antimalarial activity, flow cytometry, strain RB-1; assay type: cell-based, Plasmodium falciparum; settings: for activity against the malaria microorganism Plasmodium falciparum: summary statement; for inhibition at 0.5 µg/mL: Plasmodium falciparum, 0.5 μg/ml, 48 h, FIG. 2, read-out: inhibition of growth of P. falciparum
Method: To investigate the direct antimalarial activity of the riminophenazines B669, B4100, B4103, B4112, B4121, B4158 and B4169 against a laboratory strain of P. falciparum the following experiment was done:
A laboratory strain of P. falciparum (RB-1; obtained from Dr B L Sharp, National Malaria Research Programme, MRC, Durban) was maintained.
For these experiments malaria cultures of haematocrit 5.0% and initial parasitemia 2.0% were used. The malaria infected erythrocytes (ring stage) were incubated in microtitre plates with serial dilutions of B669, B4100, B4103, B4112, B4121, B4158 and B4169 (0.125-2 μg/ml) for 48 hours and processed for analysis on the flow cytometer as described in Example 3.

P. falciparum (FAC 8) = assay: Flow cytometry parasitaemia, chloroquine resistant strain FAC 8, chloroquine with/without B4112; assay type: cell-based, Plasmodium falciparum
Method: To test the activity of B4112 to reverse chloroquine resistance in Plasmodium falciparum, the following experiment was done:
A chloroquine resistant strain of P. falciparum (FAC 8) was obtained from Dr P Smith, University of Cape Town (originally from Dr A F Cowman, Royal Melbourne Hospital, Victoria, Australia).
Malaria infected erythrocytes (ring stage) were diluted with human O-positive red blood cells together with RPMI containing 44 mg/l hypoxanthine and 10% human type A serum to a parasitaemia of 2% and a haematocrit of 5%. This suspension was incubated in a gassed desiccator (5% O2, 5% CO2 and 90% N2) with serial dilutions of chloroquine ranging from 61-500 nM in 96-well microtitre culture plates for 48 hours in the presence or absence of a fixed concentration of B4112 (100 ng/ml). Relevant solvent controls were included.
At the end of the incubation period, 100 μl of the medium was removed from each well and replaced with a fixation solution containing 10 mM TRIS, 10 mM Na-Azide and 150 mM Na Cl. The plates were stored overnight at 4° C. and then 25 μl aliquots from each well were stained in test tubes with 0.5 ml thiazole orange at a concentration of 0.25 μg/ml in phosphate-buffered saline (PBS). After an incubation period of 1 hour at room temperature (in the dark), the tubes were placed on ice and the level of parasitaemia determined by flow cytometry using a Coulter Epics Profile II (Coulter Electronics Ltd, Hialeah, PLA, USA).

malaria parasites = settings: background, cited from earlier work
[1] = system: Plasmodium falciparum (RB-9); assay: 3H-hypoxanthine uptake, chloroquine resistant strain (RB-9 [sic]); assay type: cell-based; settings: read-out: PERCENTAGE INHIBITION (3H-hypoxanthine uptake)
[2] = system: Plasmodium falciparum (Fab-9); assay: 3H-hypoxanthine uptake, chloroquine sensitive strain Fab-9; assay type: cell-based; settings: Plasmodium falciparum, read-out: PERCENTAGE INHIBITION (3H-hypoxanthine uptake)
Method: (§1) The following experiment was done to confirm previous results which were obtained microscopically and details of which are set out in Example 1.
(§2) For this experiment the same two strains of P. falciparum, as used in Example 1 (RB-1 and Fab-9) were again used. Infected erythrocytes were diluted with human O-positive red blood cells to a parasitaemia of 0.2-0.9% and suspended to 3% in RPMI containing 44 mg/l hypxanthine and 10% human type serum. Aliquots (100 μl) of the suspension were dispensed into the wells of 96-well microtitre plates. To these suspensions 100 μl of the medium were added containing either chloroquine or B669 alone or a combination of chloroquine and B669. Relevant solvent controls were included. Negative control wells were also included containing uninfected red blood cells. The plates were incubated at 38° C. in a desiccator gassed with 5% O2, 5% CO2 and 90% N2. After 24 hours 100 μl culture medium of each well was replaced with […] of hypoxathine--free medium containing 10% human serum and 0,5μ Ci^3 H-hypoxanthine and incubated for a further 18 hours. The contents of the wells were then harvested on to glass fibre filters. The filters were washed with distilled water, dried, haemoglobin dissolved in a sodium bicarbonate solution and placed in scintillation vials containing 4 ml scintillation fluid and counted for 5 min in a liquid scintillation counter.
(§3) The percentage inhibition was calculated as follows: [formula] where CPM was the mean of two values of counts per minute for each treatment.

[3] = system: Plasmodium falciparum (RB-1); assay: Microscopic parasitaemia, chloroquine resistant strain RB-1 (reversal of chloroquine resistance); assay type: cell-based; settings: 24 h
Method: (§4) The activity of riminophenazines to reverse chloroquine resistance in Plasmodium falciparum was tested in the following manner:
(§5) A preliminary series of experiments were carried out using two laboratory strains of P. falciparum (RB-1 and Fab-9). These strains were obtained from the Medical Research Council, Durban, where they were characterised as being either mildly resistant or sensitive to chloroquine. The isolates were maintained in suspension culture in known manner (as described by Freese J A, Markus M B and Golenser J, 1991; Bulletin of the World Health Organization 69: 707-712).
(§6) Infected erythrocytes were diluted with human O-positive red blood cells to a parasitaemia of 0.2-0.9% and suspended to 3% in RPMI containing 44 mg/l hypoxanthine and 10% human type O serum. Aliquots (100 μl) of the suspension were dispensed into the wells of 96-well microtitre plates. To these suspensions 100 μl of the medium were added containing either chloroquine or B669 alone or in combination. The final drug concentrations were 31, 62, 125, 250 500 and 1000 nM for chloroquine and 0.125, 0.25, 0.5 and 1.0 μg/ml for B669. Relevant solvent controls were included. The plates were incubated for 24 hours at 38° C. in a desiccator gassed with 5% O2, 5% CO2 and 90% N2. Thin blood smears were prepared from each well, stained with Giemsa stain and the percentage of red blood cells infected by at least one parasite determined microscopically.

[4] = system: Plasmodium falciparum (Fab-9); assay: Microscopic parasitaemia, chloroquine sensitive strain Fab-9 (reversal of chloroquine resistance); assay type: cell-based; settings: 24 h
Method: as §4, §5, §6

[5] = system: Plasmodium falciparum (RB-9); assay: 3H-hypoxanthine uptake, chloroquine resistant strain (RB-9 [sic]); assay type: cell-based; settings: Plasmodium falciparum, read-out: PERCENTAGE INHIBITION (3H-hypoxanthine uptake)
Method: as §1, §2, §3

## CC1(C)CC(N=c2cc3n(-c4cc(Cl)cc(Cl)c4)c4ccccc4nc-3cc2Nc2cc(Cl)cc(Cl)c2)CC(C)(C)N1 [Compound B4121, N,5-bis(3,5-dichlorophenyl)-3,5-dihydro-3-[(2',2',6',6'-tetramethyl-4-piperidyl)-imino]-2-phenazinamine]
P. falciparum (RB-1)
  activity against the malaria microorganism Plasmodium falciparum: good activity

## CC1(C)CC(N=c2cc3n(-c4ccc(C(F)(F)F)cc4)c4ccccc4nc-3cc2Nc2ccc(C(F)(F)F)cc2)CC(C)(C)N1 [Compound B4103, N,5-bis(4-trifluoromethylphenyl)-3,5-dihydro-3[(2',2',6',6'-tetramethyl-4-piperidyl)imino]-2-phenazinamine]
P. falciparum (RB-1)
  inhibition at 0.5 µg/mL: > 50%

## CC1(C)CC(N=c2cc3n(-c4cccc(Cl)c4)c4ccccc4nc-3cc2Nc2cccc(Cl)c2)CC(C)(C)N1 [Compound B4112, N,5-bis(3-chlorophenyl)-3,5-dihydro-3-[(2',2',6',6'-tetramethyl-4-piperidyl)-imino]-2-phenazinamine]
P. falciparum (FAC 8); B4112 100 ng/ml + chloroquine 125 nM, FIG. 1
  sensitivity of P. falciparum to chloroquine (inhibition): 100%
P. falciparum (FAC 8); B4112 per se 100 ng/ml, 48 h
  inhibition of parasite growth: 27%
P. falciparum (FAC 8); FAC 8
  interaction of B4112 and chloroquine: clearly interacted synergistically
P. falciparum (RB-1)
  inhibition at 0.5 µg/mL: > 50%
  activity against the malaria microorganism Plasmodium falciparum: good activity

## CC1(C)CC(N=c2cc3n(-c4ccc(Cl)c(Cl)c4)c4ccccc4nc-3cc2Nc2ccc(Cl)c(Cl)c2)CC(C)(C)N1 [Compound B4100, N,5-bis(3,4-dichlorophenyl)-3,5-dihydro-3-[(2',2',6',6'-tetramethyl-4-piperidyl)-imino]-2-phenazinamine]
P. falciparum (RB-1)
  activity against the malaria microorganism Plasmodium falciparum: good activity

## COc1ccc(CCN(C)CCCC(C#N)(c2ccc(OC)c(OC)c2)C(C)C)cc1OC (centres unmarked) [verapamil]
Malaria parasites
  reversal of Pg H1-mediated chloroquine resistance: can be reversed
Malaria parasites; in vivo
  side effects of the dose required to reverse resistance: severe side effects in vivo

## CC(C)c1ccc(Nc2cc3nc4ccccc4n(-c4ccc(C(C)C)cc4)c-3cc2=NC2CC(C)(C)NC(C)(C)C2)cc1 [Compound B4158, N,5-bis(4-isopropylphenyl)-3,5-dihydro-3-[(2',2',6',6'-tetramethyl-4-piperidyl)-imino]-2-phenazinarnine]
P. falciparum (RB-1)
  inhibition at 0.5 µg/mL: > 50%
  activity against the malaria microorganism Plasmodium falciparum: good activity

## CCN(CC)CCCC(C)Nc1ccnc2cc(Cl)ccc12 (centres unmarked) [chloroquine, reference compound]
P. falciparum (FAC 8); Plasmodium falciparum, 48 h, read-out: concentration at which chloroquine per se inhibited the growth of the parasite
  minimal effective concentration: ≥ 0.25 µM
P. falciparum (FAC 8); Plasmodium falciparum, read-out: sensitivity of P. falciparum to chloroquine (inhibition)
  inhibition at 0.125 µM: 33%
[1]
  inhibition at 0.5 µM: 100%
[2]
  inhibition at 0.031 µM: 52.5%
  inhibition at 0.062 µM: 23.5%
  inhibition at 0.125 µM: 48.7%
  inhibition at 0.25 µM: 66.9%
  inhibition at 0.5 µM: 100%
  inhibition at 1 µM: 100%
[3]; chloroquine 31 nM alone
  Percentage red blood cells infected with P. falciparum (RB-1): 3.5%
[3]; chloroquine 62 nM alone
  Percentage red blood cells infected with P. falciparum (RB-1): 3.3%
[3]; chloroquine 125 nM alone
  Percentage red blood cells infected with P. falciparum (RB-1): 3.3%
[3]; chloroquine 250 nM alone
  Percentage red blood cells infected with P. falciparum (RB-1): 3.1%
[3]; chloroquine 500 nM alone
  Percentage red blood cells infected with P. falciparum (RB-1): 3.0%
[3]; chloroquine 1000 nM alone
  Percentage red blood cells infected with P. falciparum (RB-1): 0.4%
[4]; chloroquine 31 nM alone
  Percentage red blood cells infected with P. falciparum (Fab-9): 4.9%
[4]; chloroquine 62 nM alone
  Percentage red blood cells infected with P. falciparum (Fab-9): 3.9%
[4]; chloroquine 125 nM alone, *parasites morphologically abnormal
  Percentage red blood cells infected with P. falciparum (Fab-9): 2.4%
[4]; chloroquine 250 nM alone, *parasites morphologically abnormal
  Percentage red blood cells infected with P. falciparum (Fab-9): 3.1%
[4]; chloroquine 500 nM alone, *parasites morphologically abnormal
  Percentage red blood cells infected with P. falciparum (Fab-9): 0.1%
[4]; chloroquine 1000 nM alone
  Percentage red blood cells infected with P. falciparum (Fab-9): 0%
[5]
  inhibition at 0.031 µM: 0%
  inhibition at 0.062 µM: 0%
  inhibition at 0.125 µM: 8%
  inhibition at 0.25 µM: 33%
  inhibition at 1 µM: 100%
